# Results as given in patent US20250354182A1, “BIOSYNTHESIS OF BIFUNCTIONAL TERPENOIDS” (The Regents of the University of California, priority 2024, published 2025).
# Entries after “also recorded” stand apart in the source; their conditions may differ.
# Columns and labels:
# [1] = test system: Immortalized baby mouse kidney (iBMK) cells, non-activated (D3); test: iBMK cell growth with 12a, non-activated (D3); format: cell-based
# Method: (§1) FIG. 7: Bioactivity of farnesoic diacid. FIG. 7(a): E. coli NCM372 was grown to an optical density (OD600) of around 0.2, where either 12a in DMSO was added to final concentration of 10 μM (+) or DMSO was added (−). Three biological replicates are shown, and statistical significance using an unpaired t test is shown. FIG. 7(b): Immortalized baby mouse kidney (iBMK) cells were grown, either non-activated (D3) or Ras-activated (Ras). 12a in DMSO was added to final concentration of 10 μM (+) or DMSO was added (−). Three biological replicates are shown, and statistical significance using an unpaired t test is shown.
# (§2) We supplemented cultures with 12a to a final concentration of 10 μM and monitored growth in both Escherichia coli (FIG. 6a) and mammalian cell lines (FIG. 6b). […] These findings provide evidence that farnesoic diacid and potentially our other newly discovered bifunctional terpenoids may have distinct bioactivities across diverse biological contexts, with applications in more efficient cultivation of microbes and selective activity against certain mammalian cells. As the longer bifunctional terpenoids (C25-C30) resemble oxylipin and polyunsaturated fatty acids, which are implicated in immunity and obesity, we reason that bioactivity may be related to lipid metabolism in mammalian systems that will be relevant in pharmaceutical contexts. […]
# [2] = test system: Immortalized baby mouse kidney (iBMK) cells, Ras-activated (Ras); test: iBMK cell growth with 12a, Ras-activated (Ras); format: cell-based
# Method: as §1, §2
# [3] = test system: E. coli NCM372; test: E. coli growth with 12a supplementation; format: cell-based, Escherichia coli
# Method: as §1
# We supplemented cultures with 12a to a final concentration of 10 μM and monitored growth in both Escherichia coli (FIG. 6a) and mammalian cell lines (FIG. 6b). […] These findings provide evidence that farnesoic diacid and potentially our other newly discovered bifunctional terpenoids may have distinct bioactivities across diverse biological contexts, with applications in more efficient cultivation of microbes and selective activity against certain mammalian cells. As the longer bifunctional terpenoids (C25-C30) resemble oxylipin and polyunsaturated fatty acids, which are implicated in immunity and obesity, we reason that bioactivity may be related to lipid metabolism in mammalian systems that will be relevant in pharmaceutical contexts. Furthermore, the shorter bifunctional terpenoids (C15-C20) and their preceding biosynthetic intermediates resemble inhibitors of insect development, such as juvenile hormones, these molecules may serve as scaffolds for insecticide drug activity to target insect development. Further research on the novel molecules will illuminate more bioactivities on humans, human cells, research animals, plants, insects, and microorganisms.
# [4] = 12a 10 μM vs DMSO, 3 biological replicates
structure (smiles),measurement,setting,value
"C/C(=C\CC/C(C)=C/C(=O)O)CC/C=C(\C)C(=O)O [12a, farnesoic diacid]",proliferation / cell growth,[1]; 12a 10 μM,decreases mammalian (cancer-like) cell growth; also recorded: modest decrease in proliferation
same,cancer-like cell lines grew slower with treatment,[1]; [4],~10%
same,proliferation / cell growth,[2]; 12a 10 μM,decreases mammalian (cancer-like) cell growth; also recorded: modest decrease in proliferation
same,cancer-like cell lines grew slower with treatment,[2]; [4],~10%
same,microbial cells grew faster with treatment,"[3]; 12a 10 μM in DMSO vs DMSO, added at OD600 around 0.2, 3 biological replicates",~10%
same,final optical density,[3]; 12a 10 μM vs DMSO,higher final optical density
same,microbial growth rate / cell growth,[3]; 12a 10 μM vs DMSO,increases microbial cell growth; also recorded: increased microbial growth rate
same,total biomass content,"[3]; farnesoic diacid treatment, FIG. 7",increased
